Assay results published in article PMC6478789, “A chemical toolbox for the study of bromodomains and epigenetic signaling” (Nature Communications, 2019).

Assays:
Assay in all cases: Methyl transferase scintillation proximity assay
Assay type in all cases: biochemical
Settings in all cases: average of two measurements; for inhibition at 10 µM: read-out: MTases Inhibition (%)
PRMT4 = molecular target: T1, PRMT4 (Homo sapiens, UniProt Q86X55)
T1 construct: purchased DiscoverX BROMOscan (bromodomains); SGC in-house methyltransferase panel
T1 sequence (Q86X55 1-608): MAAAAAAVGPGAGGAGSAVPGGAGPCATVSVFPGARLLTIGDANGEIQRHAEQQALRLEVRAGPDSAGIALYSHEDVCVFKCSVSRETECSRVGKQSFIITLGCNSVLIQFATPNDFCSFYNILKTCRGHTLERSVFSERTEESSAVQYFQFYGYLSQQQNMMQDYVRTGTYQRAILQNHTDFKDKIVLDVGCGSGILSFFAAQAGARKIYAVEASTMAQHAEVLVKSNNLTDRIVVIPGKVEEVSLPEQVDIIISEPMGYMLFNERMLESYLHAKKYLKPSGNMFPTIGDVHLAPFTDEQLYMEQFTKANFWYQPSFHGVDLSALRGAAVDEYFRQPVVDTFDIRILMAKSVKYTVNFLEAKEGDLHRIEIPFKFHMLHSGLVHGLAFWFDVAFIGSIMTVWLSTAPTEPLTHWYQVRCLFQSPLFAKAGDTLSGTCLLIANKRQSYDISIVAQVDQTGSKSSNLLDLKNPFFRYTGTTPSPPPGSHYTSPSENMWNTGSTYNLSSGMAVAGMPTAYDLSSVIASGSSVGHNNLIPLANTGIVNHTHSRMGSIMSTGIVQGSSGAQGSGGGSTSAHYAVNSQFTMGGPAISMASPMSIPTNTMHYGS
Description: (§1) Assays measuring lysine and arginine methyl transferase activity have been described in Scheer et al.. A radioactivity-based scintillation proximity assay was used to monitor incorporation of a tritium-labeled methyl group into the biotinylated substrate of the methyl transferase. A 10-μl reaction containing ^3H-SAM and substrate at concentrations close to the apparent Km values for each enzyme was prepared. The reactions were quenched with 10 μl of 7.5 M guanidine hydrochloride; 180 μl of 20 mM Tris buffer (pH 8.0) were added; and the mixture was transferred to a 96-well FlashPlate and incubated for 1 h. The counts per minute (CPM) was measured on a TopCount plate reader. The CPM in the absence of compound or enzyme was defined as 100% activity and background (0%), respectively, for each dataset.

SETD7 = molecular target: T2, SETD7 (Homo sapiens, UniProt Q8WTS6)
T2 construct: purchased DiscoverX BROMOscan (bromodomains); SGC in-house methyltransferase panel
T2 sequence (Q8WTS6 1-366): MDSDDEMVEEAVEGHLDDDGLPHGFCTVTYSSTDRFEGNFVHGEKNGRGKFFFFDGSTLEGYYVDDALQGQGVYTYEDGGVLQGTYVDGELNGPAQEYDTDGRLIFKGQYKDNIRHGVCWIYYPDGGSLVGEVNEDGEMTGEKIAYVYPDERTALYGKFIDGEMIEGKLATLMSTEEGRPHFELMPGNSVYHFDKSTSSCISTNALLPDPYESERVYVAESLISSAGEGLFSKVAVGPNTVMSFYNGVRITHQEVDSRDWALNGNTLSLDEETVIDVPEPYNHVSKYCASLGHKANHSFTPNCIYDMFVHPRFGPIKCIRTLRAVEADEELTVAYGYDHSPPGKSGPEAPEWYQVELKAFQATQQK
Description: as §1

DOT1L = molecular target: T3, DOT1L (Homo sapiens, UniProt Q8TEK3)
T3 construct: purchased DiscoverX BROMOscan (bromodomains); SGC in-house methyltransferase panel
T3 sequence (Q8TEK3 whole entry): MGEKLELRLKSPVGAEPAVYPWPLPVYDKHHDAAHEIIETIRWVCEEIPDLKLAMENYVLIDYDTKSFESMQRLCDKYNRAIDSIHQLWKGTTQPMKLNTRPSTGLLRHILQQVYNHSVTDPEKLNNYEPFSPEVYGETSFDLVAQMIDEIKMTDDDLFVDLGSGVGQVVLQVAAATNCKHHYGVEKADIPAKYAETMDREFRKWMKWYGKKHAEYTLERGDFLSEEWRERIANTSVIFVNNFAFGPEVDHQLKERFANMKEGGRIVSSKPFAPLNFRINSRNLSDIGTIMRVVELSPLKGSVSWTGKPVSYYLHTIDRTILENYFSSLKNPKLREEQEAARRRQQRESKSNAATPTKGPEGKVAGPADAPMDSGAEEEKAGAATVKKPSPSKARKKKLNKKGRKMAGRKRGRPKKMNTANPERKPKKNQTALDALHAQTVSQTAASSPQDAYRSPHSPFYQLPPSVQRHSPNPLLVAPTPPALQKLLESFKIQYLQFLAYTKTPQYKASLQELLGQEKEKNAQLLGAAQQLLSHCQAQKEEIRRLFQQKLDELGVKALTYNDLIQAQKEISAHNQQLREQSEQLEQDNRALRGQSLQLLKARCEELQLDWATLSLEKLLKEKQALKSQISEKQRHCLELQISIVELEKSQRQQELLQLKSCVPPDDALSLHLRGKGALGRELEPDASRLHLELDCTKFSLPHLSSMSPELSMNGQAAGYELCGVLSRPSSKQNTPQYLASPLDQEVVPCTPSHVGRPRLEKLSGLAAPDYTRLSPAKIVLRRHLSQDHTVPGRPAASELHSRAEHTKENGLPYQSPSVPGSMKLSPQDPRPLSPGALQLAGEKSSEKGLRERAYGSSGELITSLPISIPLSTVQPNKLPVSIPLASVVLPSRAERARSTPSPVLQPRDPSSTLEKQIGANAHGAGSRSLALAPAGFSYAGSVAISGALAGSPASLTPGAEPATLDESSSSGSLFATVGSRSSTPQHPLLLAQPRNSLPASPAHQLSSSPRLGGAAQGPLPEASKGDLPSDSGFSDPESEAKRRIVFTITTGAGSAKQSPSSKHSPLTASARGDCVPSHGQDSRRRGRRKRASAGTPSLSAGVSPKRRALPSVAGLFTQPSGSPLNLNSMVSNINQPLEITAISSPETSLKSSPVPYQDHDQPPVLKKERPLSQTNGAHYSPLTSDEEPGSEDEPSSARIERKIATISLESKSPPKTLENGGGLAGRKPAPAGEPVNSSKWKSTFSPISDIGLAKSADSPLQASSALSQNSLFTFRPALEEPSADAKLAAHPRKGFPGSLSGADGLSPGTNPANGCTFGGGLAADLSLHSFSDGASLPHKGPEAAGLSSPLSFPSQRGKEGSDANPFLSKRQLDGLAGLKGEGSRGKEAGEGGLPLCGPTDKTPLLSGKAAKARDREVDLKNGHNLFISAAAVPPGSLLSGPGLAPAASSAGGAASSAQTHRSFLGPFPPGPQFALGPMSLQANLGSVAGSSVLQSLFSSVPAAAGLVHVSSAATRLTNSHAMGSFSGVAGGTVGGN
Description: as §1

SUV420H1 = molecular target: T4, SUV420H1 (Homo sapiens, UniProt Q4FZB7)
T4 construct: purchased DiscoverX BROMOscan (bromodomains); SGC in-house methyltransferase panel
T4 sequence (Q4FZB7 whole entry): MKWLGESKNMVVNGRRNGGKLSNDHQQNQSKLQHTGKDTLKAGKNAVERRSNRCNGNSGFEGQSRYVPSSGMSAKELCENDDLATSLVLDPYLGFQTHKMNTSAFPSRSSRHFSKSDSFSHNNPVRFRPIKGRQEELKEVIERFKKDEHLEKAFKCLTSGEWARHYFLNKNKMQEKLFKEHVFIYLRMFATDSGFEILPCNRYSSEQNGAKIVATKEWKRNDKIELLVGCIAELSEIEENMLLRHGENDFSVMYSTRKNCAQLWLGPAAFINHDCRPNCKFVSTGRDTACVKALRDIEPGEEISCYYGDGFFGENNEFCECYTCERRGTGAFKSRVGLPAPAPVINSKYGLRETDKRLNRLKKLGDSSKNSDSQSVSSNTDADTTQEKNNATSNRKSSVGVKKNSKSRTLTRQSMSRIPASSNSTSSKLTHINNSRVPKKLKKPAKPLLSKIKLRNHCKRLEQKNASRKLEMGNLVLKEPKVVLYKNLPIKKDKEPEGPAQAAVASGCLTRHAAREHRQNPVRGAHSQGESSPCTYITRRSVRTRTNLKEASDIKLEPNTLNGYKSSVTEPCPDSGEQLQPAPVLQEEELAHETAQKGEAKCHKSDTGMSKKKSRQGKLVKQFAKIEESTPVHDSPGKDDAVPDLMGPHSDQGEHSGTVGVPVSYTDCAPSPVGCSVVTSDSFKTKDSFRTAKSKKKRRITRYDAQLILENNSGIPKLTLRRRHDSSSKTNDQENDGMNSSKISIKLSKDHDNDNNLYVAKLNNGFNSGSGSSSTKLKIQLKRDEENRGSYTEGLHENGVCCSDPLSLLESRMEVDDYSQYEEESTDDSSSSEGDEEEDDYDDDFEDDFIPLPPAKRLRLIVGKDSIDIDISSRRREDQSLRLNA
Description: as §1

PRMT6 = molecular target: T5, PRMT6 (Homo sapiens, UniProt Q96LA8)
T5 construct: purchased DiscoverX BROMOscan (bromodomains); SGC in-house methyltransferase panel
T5 sequence (Q96LA8 whole entry): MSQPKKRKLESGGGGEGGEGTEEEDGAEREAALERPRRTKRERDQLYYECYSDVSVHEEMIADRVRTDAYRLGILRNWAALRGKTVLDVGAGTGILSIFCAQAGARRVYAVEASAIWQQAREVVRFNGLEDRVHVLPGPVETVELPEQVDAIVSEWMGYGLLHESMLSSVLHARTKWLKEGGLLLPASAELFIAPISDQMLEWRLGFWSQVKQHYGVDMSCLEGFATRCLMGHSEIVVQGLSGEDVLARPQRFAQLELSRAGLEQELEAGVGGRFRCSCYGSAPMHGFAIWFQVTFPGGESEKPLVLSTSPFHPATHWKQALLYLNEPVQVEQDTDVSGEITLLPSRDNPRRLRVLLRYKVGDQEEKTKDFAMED
Description: as §1

SETDB1 = molecular target: T6, SETDB1 (Homo sapiens, UniProt Q15047)
T6 construct: purchased DiscoverX BROMOscan (bromodomains); SGC in-house methyltransferase panel
Description: as §1

PRC2-EZH2 = molecular target: T7, PRC2-EZH2 (Homo sapiens, UniProt Q15910)
T7 construct: purchased DiscoverX BROMOscan (bromodomains); SGC in-house methyltransferase panel
T7 sequence (Q15910 whole entry): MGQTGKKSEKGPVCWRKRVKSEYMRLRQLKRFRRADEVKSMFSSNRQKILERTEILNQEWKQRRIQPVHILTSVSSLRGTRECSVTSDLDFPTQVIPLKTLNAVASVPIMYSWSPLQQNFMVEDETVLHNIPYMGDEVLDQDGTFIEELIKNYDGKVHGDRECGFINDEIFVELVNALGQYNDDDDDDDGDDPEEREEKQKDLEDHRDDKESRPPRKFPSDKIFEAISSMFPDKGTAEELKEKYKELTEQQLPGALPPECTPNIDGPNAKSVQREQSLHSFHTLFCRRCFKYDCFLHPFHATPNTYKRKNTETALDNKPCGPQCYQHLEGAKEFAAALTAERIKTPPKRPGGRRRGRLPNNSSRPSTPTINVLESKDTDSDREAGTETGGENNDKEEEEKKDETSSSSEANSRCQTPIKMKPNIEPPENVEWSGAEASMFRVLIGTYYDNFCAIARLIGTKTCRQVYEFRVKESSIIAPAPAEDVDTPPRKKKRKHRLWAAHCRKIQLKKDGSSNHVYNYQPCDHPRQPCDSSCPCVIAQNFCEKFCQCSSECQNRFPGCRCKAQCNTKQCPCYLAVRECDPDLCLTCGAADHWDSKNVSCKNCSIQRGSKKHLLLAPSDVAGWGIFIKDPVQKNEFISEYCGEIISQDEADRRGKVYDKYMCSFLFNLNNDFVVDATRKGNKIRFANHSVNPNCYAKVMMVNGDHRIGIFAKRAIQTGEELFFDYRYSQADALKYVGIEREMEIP
T7 sequence (O75530 whole entry partner): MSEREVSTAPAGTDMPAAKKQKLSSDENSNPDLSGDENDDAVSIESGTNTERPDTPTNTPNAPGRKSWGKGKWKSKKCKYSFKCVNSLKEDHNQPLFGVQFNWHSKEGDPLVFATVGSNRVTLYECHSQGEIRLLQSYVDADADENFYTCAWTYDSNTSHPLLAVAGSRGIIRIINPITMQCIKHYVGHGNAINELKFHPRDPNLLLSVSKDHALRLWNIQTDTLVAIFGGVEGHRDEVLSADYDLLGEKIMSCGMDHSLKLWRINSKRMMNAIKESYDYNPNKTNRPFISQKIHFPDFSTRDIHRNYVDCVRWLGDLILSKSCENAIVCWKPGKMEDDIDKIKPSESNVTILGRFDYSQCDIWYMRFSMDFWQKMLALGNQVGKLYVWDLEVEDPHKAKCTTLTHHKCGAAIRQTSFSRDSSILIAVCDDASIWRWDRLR
T7 sequence (Q15022 whole entry partner): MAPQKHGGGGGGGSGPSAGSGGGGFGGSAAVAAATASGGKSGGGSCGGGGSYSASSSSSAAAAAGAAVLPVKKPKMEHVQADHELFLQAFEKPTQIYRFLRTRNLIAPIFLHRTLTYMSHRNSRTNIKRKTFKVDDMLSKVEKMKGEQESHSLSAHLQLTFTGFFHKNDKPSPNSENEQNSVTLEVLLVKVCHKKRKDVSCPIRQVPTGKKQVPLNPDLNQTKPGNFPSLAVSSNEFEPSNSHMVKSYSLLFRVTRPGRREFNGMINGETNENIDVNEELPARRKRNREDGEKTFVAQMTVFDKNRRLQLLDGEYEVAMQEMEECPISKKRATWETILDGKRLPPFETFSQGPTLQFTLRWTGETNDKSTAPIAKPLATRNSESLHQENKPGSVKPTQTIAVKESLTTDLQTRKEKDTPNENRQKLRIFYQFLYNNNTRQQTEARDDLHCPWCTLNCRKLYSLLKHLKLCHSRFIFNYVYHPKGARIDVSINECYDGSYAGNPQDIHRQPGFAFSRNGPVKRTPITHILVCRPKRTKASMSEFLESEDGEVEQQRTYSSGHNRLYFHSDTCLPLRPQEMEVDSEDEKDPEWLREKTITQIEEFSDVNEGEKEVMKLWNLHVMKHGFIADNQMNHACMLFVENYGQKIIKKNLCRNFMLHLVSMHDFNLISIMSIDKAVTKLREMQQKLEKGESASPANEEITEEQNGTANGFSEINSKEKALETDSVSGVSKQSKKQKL
Description: as §1

Row | SMILES | inhibition at 10 µM (PRMT4) | inhibition at 10 µM (SETD7) | inhibition at 10 µM (DOT1L) | inhibition at 10 µM (SUV420H1) | inhibition at 10 µM (PRMT6) | inhibition at 10 µM (SETDB1) | inhibition at 10 µM (PRC2-EZH2) | MTases Inhibition (%) (PRMT4; 10µM) | MTases Inhibition (%) (SETD7; 10µM) | MTases Inhibition (%) (DOT1L; 10µM) | MTases Inhibition (%) (SUV420H1; 10µM) | MTases Inhibition (%) (PRMT6; 10µM) | MTases Inhibition (%) (SETDB1; 10µM) | MTases Inhibition (%) (PRC2-EZH2; 10µM)
1 | Cc1c(NC(=O)c2cc(C(N)=O)nc3cc(F)ccc23)c(C(F)(F)F)nn1Cc1ccc(C(C)(C)C)cc1 [BAY-588] | 9% | 10% | 3% | -5% | 4% | 5% | 3% | – | – | – | – | – | – | –
2 | COc1cc(Cl)c(C(=O)N[C@@H](CN[C@H]2CC[C@@H](N)CC2)Cc2ccc(C#N)cc2)cc1-c1ccc(CN[C@H](C)c2ccc(C)cc2)o1 [BAY-850] | 25% | 11% | 3% | 5% | 13% | 8% | 3% | – | – | – | – | – | – | –
3 | Cc1c(NC(=O)c2cc(C(N)=O)nc3cc(F)ccc23)c(C(F)(F)F)nn1Cc1ccc(C#N)cc1 [BAY-876] | 1% | 10% | -6% | -1% | -3% | -4% | 5% | – | – | – | – | – | – | –
4 | Cc1nnc2c3ccccc3c(N[C@@H](C)[C@H](c3ccccc3)N(C)C)nn12 [L-Moses] | 6% | 7% | 1% | 4% | 5% | 1% | -4% | – | – | – | – | – | – | –
5 | CN(C)CCCOc1ccc(-c2cc(NCCCn3cccn3)nc(S(C)(=O)=O)n2)cc1 [TP-238] | 3% | -1% | 6% | 3% | 6% | -1% | 3% | – | – | – | – | – | – | –

More lines, now with the values ahead:

Row | inhibition at 10 µM (PRMT4) | inhibition at 10 µM (SETD7) | inhibition at 10 µM (DOT1L) | inhibition at 10 µM (SUV420H1) | inhibition at 10 µM (PRMT6) | inhibition at 10 µM (SETDB1) | inhibition at 10 µM (PRC2-EZH2) | MTases Inhibition (%) (PRMT4; 10µM) | MTases Inhibition (%) (SETD7; 10µM) | MTases Inhibition (%) (DOT1L; 10µM) | MTases Inhibition (%) (SUV420H1; 10µM) | MTases Inhibition (%) (PRMT6; 10µM) | MTases Inhibition (%) (SETDB1; 10µM) | MTases Inhibition (%) (PRC2-EZH2; 10µM) | SMILES
6 | -2% | 12% | -2% | 8% | 6% | -1% | -5% | – | – | – | – | – | – | – | CN1C[C@H](Nc2cnn(C)c(=O)c2Br)C[C@H](c2ccccc2)C1 [GSK4027]
7 | – | – | – | – | – | – | – | 2% | 7% | 10% | 5% | 5% | 1% | 0% | COc1ccccc1C(=O)Nc1cc2c(cc1N1CCNC[C@H]1C)n(C)c(=O)n2C [GSK6853]
8 | 1% | 7% | 5% | -3% | 0% | 1% | 2% | – | – | – | – | – | – | – | CO[C@H]1CNC[C@@H](OCC2CCC(F)(F)CC2)[C@@H]1Nc1ncc(-c2cncc(C)c2)c2cc(C)c(=O)[nH]c12 [GSK8814]
